In patent US20200399392A1, “INHIBITORS OF PLA2-G1B COFACTORS FOR TREATING CANCER” (priority 2018, published 2020):

How the values were obtained:
[1] = system: gC1qR KO Jurkat E6.1 T cells; assay: PLA2-GIB enzymatic assay on [3H] arachidonic acid labelled gC1qR KO Jurkat E6.1 T cells; format: cell-based, human; settings: gC1qR KO cells (1D5 or 2G9), pretreatment 21 h, FIG. 13
From the text: Generation of gC1qR KO Jurkat E6.1 T cells—The global strategy for the development of Jurkat cells deprived of C1QBP is based on the design of a targeting vector permitting bi-allelic inactivation of C1QBP gene via homologous recombination. Human C1QBP homologous regions isogenic with the Jurkat E6.1 T cell line (ECACC 88042803) has been used. The targeting vector has been synthetized by Genewiz and cloned into the pUC57-Amp vector. […] The NeoR cassette was cloned using BamHI/NotI restriction sites. The targeting vector has been verified by DNA restriction digestion cut with selected restriction enzymes (APaL1, Drd1, Pvu1, Pvu2, BamH1/NotI, Not1/NcoI, NEB) and target region sequencing. The DNA primers corresponding to C1QBP sgRNA (1828-Crispr_1A: CACC-[…] and 1828-Crispr_1B: AAAC-[…]) were hybridized and cloned (Quick Ligase-New England Biolabs, NEB) into the pX330 plasmid (Addgene, 42230; Feng Zhang, MIT) using BbsI restriction site (NEB).
The Jurkat cells (5×10^6) were resuspended in 100 μL of Opti-MEM and 7 μg of CRISPR/Cas9 plasmid and 2.5 μg of targeting vector were added. The cells were electroporated with a Nepa21 electroporator. After cell selection in G418 selective medium, the Jurkat cell clones were prescreened by PCR genotyping. Independent cell clones knocked-out for C1QBP gene were amplified and verified by PCR genotyping and target region sequencing. […]

gC1qR = target: T1, gC1qR (Homo sapiens, UniProt Q07021); assay: gC1qR-peptides binding assay (ELISA on microplates); settings: peptide coated, His-tag-gC1qR 0 to 3 μg/well, FIG. 12
T1 sequence (Q07021 74-282): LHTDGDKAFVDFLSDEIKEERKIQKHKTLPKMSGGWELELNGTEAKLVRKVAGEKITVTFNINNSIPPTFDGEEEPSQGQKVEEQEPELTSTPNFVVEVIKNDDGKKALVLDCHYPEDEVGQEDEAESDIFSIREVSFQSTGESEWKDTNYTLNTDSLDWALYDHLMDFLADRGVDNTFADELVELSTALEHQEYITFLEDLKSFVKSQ
Protocol: The unbound protein was removed; the wells washed 2× with TBST (20 mM Tris-HCl pH 7.5, 150 mM NaCl, and 0.05% Tween-20) and the unreacted sites blocked by incubation (30 min, room temp) with 300 μl of 3% BSA in TBST. After washing (2× with TBST), the microtiter plate bound peptides was incubated (2 h, room temp.) with different amount of His-tag-gC1qR ranging from 0 to 3 μg/well in triplicate. After washing (5 times with TBST), 100 μl of anti-His tag-HRP antibody (1:1000; 71840-3, Merck) in 3% BSA in TBST was added per well and incubated for 2 h at room temperature. Microplates wells were then washed (5 times with TBST) and 100 μl of TMB ELISA substrate standard solution (UP664781, Interchim) was added per well. Reaction was stopped with 100 μl per well of a H2SO4 solution at 0.16M and OD at 450 nm was measured on a microplate reader (Tecan Infinite M1000 Pro).
A scrambled peptide or a control peptide were used as control.

Substance: NH2-PWNASWSNKSLDDIW—COOH (H-PWNASWSNKSLDDIW-OH) [PEP3]
- PLA2-GIB activity vs scrambled PEP3 [1]: not
- binding to gC1qR (gC1qR): binds
